Here are results for 6 compounds from patent publication US11446270B2, “Leonurine crystal and use thereof in preparation of insulin sensitizer, hypoglycemic drug and lipid-lowering drug” (ZHUHAI HENGQIN NEW DISTRICT ZHONGZHU ZHENGTAI MEDICAL …, priority 2017, dated 2022).

One data set relates to New Zealand white rabbit. Briefly: Serum lipids in hyperlipidemia New Zealand rabbits on high fat diet. It counts as in vivo. To be noted: positive control 2.5 mg/kg/day intragastric, 12 weeks, vs model group. The procedure:
Forty-eight male New Zealand rabbits weighed 1.8 to 2.2 kg were housed under 12 h dark-12 h light cycles and allowed food and water ad libitum to adapt to the housing environment for one week, and then randomly divided into 6 groups: • 1) Control group (Normal diet, n=8); Administered intragastrically with ultrapure water; • 2) Model group (High fat diet, n=8); Administered intragastrically with ultrapure water; • 3) Leonurine crystal form A in low dose group (High fat diet, n=8); Administered intragastrically at a dose of 4 mg/kg/day; • 4) Leonurine crystal form A in middle dose group (High fat diet, n=8); Administered intragastrically at a dose of 8 mg/kg/day; • 5) Leonurine crystal form A in high dose group (High fat diet, n=8); […] Administered intragastrically at a dose of 2.5 mg/kg/day; Rabbits were weighed before administered drugs every week, where the dosage of the drug for rabbits is calculate according to the weight; and housed in an air-conditioned room under (24±1° C. room temperature and 55±5% air humidity) and allowed enough food and water ad libitum. After 12 weeks of administration, the rabbits were fasted for 12 h, and blood (2 ml) was drawn from the marginal ear vein for hematology analysis. Hematology analysis: blood samples were let for standing for 2 h and centrifuged (3000 rpm, 10 min, 4° C.) to obtain serum. The serum samples were tested according to the protocols recommended by Nanjing Jiancheng Bioengineering Institute. The total cholesterol (TC), triacylglycerol (TG), low-density cholesterol (LDL-C) and […] (HDL-C) levels in the serum samples were assessed using automatic microplate reader and automatic biochemical analyzer. Statistical analysis: GraphPad Prism 5 software was used to analyze and draw figure. Results were expressed as the mean±standard (mean±SD), and statistical analysis was performed by one-way analysis of variance (ANOVA) or student's t test. A difference with P<0.05 was considered statistically significant. Statistical significance was set at *P<0.05, **P<0.01, ***P<0.001 versus the model group.

A further data set concerns ApoE knockout mice. Briefly: Serum lipids in hyperlipidemia ApoE knockout mice on high fat diet. It counts as in vivo. To be noted: positive control 3 mg/kg/day intragastric, 4 weeks, vs model group. The protocol:
Fifteen C57BL/6J mice (male, 6-8 weeks) and seventy-five ApoE knockout mice (male, 6-8 weeks) were used for experiments. C57BL/6J mice were fed with normal diet, and ApoE knockout mice were fed for 1 week with a diet of normal/high fat diet ratio of 1/1.
Mice were weighed before administered drugs every week, where the dosage of the drug for mice is calculate according to the weight; and housed under 24±1° C. room temperature and 55±5% air humidity condition, and allowed enough food and water ad libitum. After the drug administration continuously for 4 weeks, the mice were anesthetized with pentobarbital sodium according to body weight. Blood (0.5 ml per mouse) was drawn from the inner canthus vein for hematology analysis. Hematology analysis: blood samples were let for standing for 2 h and centrifuged (3000 rpm, 10 min, 4° C.) to obtain serum. The total cholesterol (TC), triacylglycerol (TG) and low-density cholesterol (LDL-C) levels in the serum samples were assessed using automatic biochemical analyzer. Statistical analysis: GraphPad Prism 5 software was used to analyze and draw figure. Results were expressed as the mean±standard (mean±SD), and statistical analysis was performed by one-way analysis of variance (ANOVA) or student's t test. A difference with P<0.05 was considered statistically significant. Statistical significance was set at *P<0.05, **P<0.01, ***P<0.001 versus the model group.

A short description of data set [1]: Hygroscopicity, dynamic vapor sorption (DVS), 0-95% RH. To be noted: for change of crystal form / hygroscopicity (in words): range of 0-95% relative humidity. Format: physicochemical. The protocol: Dynamic vapor sorption (DVS) method, instrument model: SMS DVS Intrinsic, 0˜95% RH, temperature: 25° C.; FTIR method, instrument model: Nicolet 6700, sectral range: 4000˜400 cm^−1, resolution ratio: 4 cm^−1, scanning times: 32, the infrared spectra of the samples were determined by KBr pressed-disk technique method, temperature: 25° C.;
In this invention, it is named as leonurine crystal form A, which is monohydrate crystal form, square block crystal (as shown in FIG. 13), no crystal transformation before melting, dehydrates at 120˜150° C. and transform into anhydrous crystal form B, and decomposes at about 250° C. […] Under the condition of, in the suspension experiment at 25° C., in methanol, ethanol, isopropanol, acetone, acetonitrile, tetrahydrofuran, nitromethane, ethyl acetate, isopropyl acetate, isoamyl alcohol, methyl tert-butyl ether, toluene, methyl isobutyl ketone, n-hexane, n-heptane, ether, dichloromethane, chloroform, petroleum ether, water and other solvents; and under the condition of, in the suspension experiment at 50° C., in methanol, ethanol, acetone, methyl ethyl ketone, isopropyl acetate, methyl tert-butyl ether, toluene, n-hexane, n-heptane, diethyl ether, chloroform, petroleum ether, water and other solvents; and under most solvent conditions in suspension and volatilization of mixed solvents at 25° C. and 50° C., form A can be obtained. […] In a range of 0˜95% RH, the dehydration and water absorption behavior of the crystal form is very weak.

Data set [2] in a line: Accelerated stability test of leonurine crystal forms. It counts as physicochemical. To be noted: 40° C.; for Crystal stability: 70% RH, 10 days. The source says:
In the invention, the dominant medicinal crystal form was also screened by the accelerated stability experimental method, and observed the transformation among the various crystal forms.

[3] abbreviates: relative humidity 60%-80%, 10-day stability test.

Take `CC(C)c1c(C(=O)Nc2ccccc2)c(-c2ccccc2)c(-c2ccc(F)cc2)n1CC[C@@H](O)C[C@@H](O)CC(=O)O` [Atorvastatin, reference compound]: in the data set on New Zealand white rabbit, the “serum total cholesterol (TC)” value was “no significant difference” and the “serum triacylglycerol (TG)” value is on record as “reduced”. Besides, in the data set with ApoE knockout mice, the “serum total cholesterol (TC)” value is on record as “reduced” and the “serum triacylglycerol (TG)” value is reported as “reduced”.

With `COc1cc(C(=O)OCCCCNC(=N)N)cc(OC)c1O` [crystal form B, 4-guanidino-1-butyl 4-hydroxy-3,5-dimethoxybenzoate], the “hygroscopicity, water absorption” value in data set [1] (60% RH) is given as 60% RH, water absorption 0.14%; in data set [1] (80% RH), 80% RH, water absorption 0.30%. Also, in data set [1], the “change of crystal form” value is on record as “changed into crystal form A”. The “hygroscopicity (in words)” value in data set [1] is listed as “slightly hygroscopicity”. Moreover, the figures for the Crystal stability entry in data set [2] and in data set [2] (listed as B) were “transformed into crystal form A” and “form into A”, respectively. Also, in data set [2] (setting [3]), the crystal transformation behavior result is “appeared crystal transformation”.

Regarding `COc1cc(C(=O)OCCCCNC(=N)N)cc(OC)c1O` [crystal form C, 4-guanidino-1-butyl 4-hydroxy-3,5-dimethoxybenzoate], the “hygroscopicity, water absorption” value is recorded as 60% RH, water absorption 0.56% in data set [1] (60% RH) and 80% RH, water absorption 1.05% in data set [1] (80% RH). Further, the “change of crystal form” value in data set [1] is on record as “changed into crystal form A”. Also, the Crystal stability entry in data set [2] is listed as “transformed into crystal form A”; in data set [2] (listed as C) it was “form into A”. The crystal transformation behavior entry in data set [2] (setting [3]) is “appeared crystal transformation”.

For the compound `COc1cc(C(=O)OCCCCNC(=N)N)cc(OC)c1O` [crystal form D, 4-guanidino-1-butyl 4-hydroxy-3,5-dimethoxybenzoate], the “hygroscopicity, water absorption” value in data set [1] (60% RH) was 60% RH, water absorption 1.63%; in data set [1] (80% RH) it was 80% RH, water absorption 0.98%. In data set [1], the “change of crystal form” value is “changed into crystal form A”. In addition, the values for the Crystal stability result in data set [2] and in data set [2] (listed as D) were “transformed into crystal form A” and “form into A”, respectively. The crystal transformation behavior entry in data set [2] (setting [3]) is recorded as “appeared crystal transformation”.

In the case of `COc1cc(C(=O)OCCCCNC(=N)N)cc(OC)c1O` [crystal form E, 4-guanidino-1-butyl 4-hydroxy-3,5-dimethoxybenzoate], the “hygroscopicity, water absorption” value was 60% RH, water absorption 0.07% in data set [1] (60% RH) and 80% RH, water absorption 0.12% in data set [1] (80% RH). In addition, the “change of crystal form” value in data set [1] is reported as “didn't change”. The entries for the “hygroscopicity (in words)” value in data set [1] and in data set [2] (setting [3]) were “slight hygroscopicity” and “strong”, respectively. Also, the Crystal stability result in data set [2] is recorded as “remain unchanged”; in data set [2] (listed as E), “stable”. For the same compound, in data set [2] (setting [3]), the crystal transformation behavior entry was “did not appear crystal transformation”. Moreover, the “hygroscopicity relative to crystal form A” value in data set [2] (setting [3]) is listed as “about ten times”.

Consider `COc1cc(C(=O)OCCCCNC(=N)N)cc(OC)c1O` [crystal form F, 4-guanidino-1-butyl 4-hydroxy-3,5-dimethoxybenzoate], for which the “hygroscopicity, water absorption” value in data set [1] (60% RH) was 60% RH, water absorption 0.14%; in data set [1] (80% RH), 80% RH, water absorption 0.30%. Also, in data set [1], the “change of crystal form” value is listed as “changes into crystal form A”. Also, the “hygroscopicity (in words)” value in data set [1] was “slightly hygroscopicity”. The Crystal stability entry in data set [2] (listed as F) is “form into A”; in data set [2] (listed as form F), “transformed into crystal form A”. Further, in data set [2] (setting [3]), the crystal transformation behavior entry was “appeared crystal transformation”.
